Converted amounts (≈) assume the structure as drawn.
Molecular target: High affinity nerve growth factor receptor (Homo sapiens, UniProt P04629)
Assay: not given
Conditions: not given

High affinity nerve growth factor receptor, sequence (P04629 whole entry): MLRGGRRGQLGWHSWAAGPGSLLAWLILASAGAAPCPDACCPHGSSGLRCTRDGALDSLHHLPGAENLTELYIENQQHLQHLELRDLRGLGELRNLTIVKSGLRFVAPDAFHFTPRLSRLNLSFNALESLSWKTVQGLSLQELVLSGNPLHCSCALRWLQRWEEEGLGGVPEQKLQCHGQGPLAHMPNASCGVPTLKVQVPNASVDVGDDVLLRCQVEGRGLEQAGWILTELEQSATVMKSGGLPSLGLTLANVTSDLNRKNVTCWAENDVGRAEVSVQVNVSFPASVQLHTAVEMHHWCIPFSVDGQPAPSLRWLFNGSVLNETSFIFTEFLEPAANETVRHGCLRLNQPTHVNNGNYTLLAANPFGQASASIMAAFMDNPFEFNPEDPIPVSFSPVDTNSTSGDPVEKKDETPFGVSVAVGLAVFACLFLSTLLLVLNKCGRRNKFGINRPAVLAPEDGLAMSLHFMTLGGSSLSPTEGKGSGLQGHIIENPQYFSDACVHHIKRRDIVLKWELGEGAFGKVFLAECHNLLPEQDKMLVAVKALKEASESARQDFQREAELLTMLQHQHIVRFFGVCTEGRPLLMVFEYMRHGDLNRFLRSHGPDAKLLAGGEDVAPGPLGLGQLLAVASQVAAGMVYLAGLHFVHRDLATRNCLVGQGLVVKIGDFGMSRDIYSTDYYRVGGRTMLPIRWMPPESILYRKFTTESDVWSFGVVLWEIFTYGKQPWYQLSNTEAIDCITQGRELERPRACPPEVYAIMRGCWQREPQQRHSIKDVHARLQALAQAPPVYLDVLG

First: CC(C)n1cc(C(=O)c2cncc(NC(=O)Cn3ccc(C4CC4)n3)c2)c2cncc(F)c21
Second: CC(C)n1cc(C(=O)c2cncc(NC(=O)Cc3ccc(C#N)cc3)c2)c2c(N)ncnc21
The IC50 of the first is 2.2-fold lower: 33 nM for the first, 73 nM for the second.

Molecule CC(C)n1cc(C(=O)c2ccnc(NC(=O)Cc3ccc(F)cc3F)c2)c2c(N)ncnc21 has an IC50 of 3 nM.

Molecular target: T1, Aldehyde oxidase (Homo sapiens, UniProt Q06278)
T1 sequence (Q06278 whole entry): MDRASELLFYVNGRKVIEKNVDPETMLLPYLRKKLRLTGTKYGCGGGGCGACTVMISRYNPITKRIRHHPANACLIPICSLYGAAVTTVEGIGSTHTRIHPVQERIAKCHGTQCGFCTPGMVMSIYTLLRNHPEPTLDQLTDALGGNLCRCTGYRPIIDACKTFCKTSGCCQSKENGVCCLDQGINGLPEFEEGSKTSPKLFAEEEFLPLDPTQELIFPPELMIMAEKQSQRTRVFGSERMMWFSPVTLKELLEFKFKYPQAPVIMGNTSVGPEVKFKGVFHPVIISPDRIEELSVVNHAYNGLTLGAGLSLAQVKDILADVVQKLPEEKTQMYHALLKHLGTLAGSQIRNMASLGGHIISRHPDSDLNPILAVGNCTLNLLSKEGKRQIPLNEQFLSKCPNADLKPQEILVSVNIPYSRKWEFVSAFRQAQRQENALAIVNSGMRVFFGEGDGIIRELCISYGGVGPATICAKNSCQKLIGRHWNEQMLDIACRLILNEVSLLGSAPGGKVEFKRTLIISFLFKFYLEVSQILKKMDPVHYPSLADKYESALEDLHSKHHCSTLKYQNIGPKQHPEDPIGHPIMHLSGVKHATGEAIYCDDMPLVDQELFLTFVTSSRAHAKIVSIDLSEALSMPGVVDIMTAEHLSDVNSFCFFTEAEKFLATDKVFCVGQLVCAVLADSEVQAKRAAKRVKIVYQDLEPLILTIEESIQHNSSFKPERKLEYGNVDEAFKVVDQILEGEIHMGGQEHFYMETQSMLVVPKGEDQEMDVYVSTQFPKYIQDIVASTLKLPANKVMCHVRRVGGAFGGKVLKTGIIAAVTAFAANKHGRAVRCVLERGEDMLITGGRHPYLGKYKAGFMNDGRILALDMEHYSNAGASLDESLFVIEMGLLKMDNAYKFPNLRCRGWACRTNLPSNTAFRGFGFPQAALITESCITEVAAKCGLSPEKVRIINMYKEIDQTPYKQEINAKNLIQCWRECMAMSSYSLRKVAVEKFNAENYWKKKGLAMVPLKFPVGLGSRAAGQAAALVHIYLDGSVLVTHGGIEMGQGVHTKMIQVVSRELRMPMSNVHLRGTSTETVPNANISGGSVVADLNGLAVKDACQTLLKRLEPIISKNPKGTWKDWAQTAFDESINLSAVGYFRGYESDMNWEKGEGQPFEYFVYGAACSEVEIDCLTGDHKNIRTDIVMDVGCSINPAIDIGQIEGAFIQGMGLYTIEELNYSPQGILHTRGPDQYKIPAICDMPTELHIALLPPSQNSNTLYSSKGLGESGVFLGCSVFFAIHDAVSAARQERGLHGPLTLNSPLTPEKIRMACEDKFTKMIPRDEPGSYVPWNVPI
Assay: Drug metabolism in human liver S9 fractions assessed as AO-mediated mono-oxidised metabolite formation at 10 uM incubated for 60 mins in absence of CYP cofactor NADP and in presence of 50 uM XO inhibitor allopurinol by HPLC-UV chromatography
Type: ADME, subcellular
Conditions: s9, 1 h

For C[C@H](CO)n1cc(C(=O)c2ccnc(NC(=O)Cc3ccc(C#N)cc3)c2)c2cncnc21, the Drug metabolism was “Metabolite_Detected”.

Molecular target: BDNF/NT-3 growth factors receptor (Homo sapiens, UniProt Q16620)
Assay: not given
Conditions: not given

BDNF/NT-3 growth factors receptor, sequence (Q16620 whole entry): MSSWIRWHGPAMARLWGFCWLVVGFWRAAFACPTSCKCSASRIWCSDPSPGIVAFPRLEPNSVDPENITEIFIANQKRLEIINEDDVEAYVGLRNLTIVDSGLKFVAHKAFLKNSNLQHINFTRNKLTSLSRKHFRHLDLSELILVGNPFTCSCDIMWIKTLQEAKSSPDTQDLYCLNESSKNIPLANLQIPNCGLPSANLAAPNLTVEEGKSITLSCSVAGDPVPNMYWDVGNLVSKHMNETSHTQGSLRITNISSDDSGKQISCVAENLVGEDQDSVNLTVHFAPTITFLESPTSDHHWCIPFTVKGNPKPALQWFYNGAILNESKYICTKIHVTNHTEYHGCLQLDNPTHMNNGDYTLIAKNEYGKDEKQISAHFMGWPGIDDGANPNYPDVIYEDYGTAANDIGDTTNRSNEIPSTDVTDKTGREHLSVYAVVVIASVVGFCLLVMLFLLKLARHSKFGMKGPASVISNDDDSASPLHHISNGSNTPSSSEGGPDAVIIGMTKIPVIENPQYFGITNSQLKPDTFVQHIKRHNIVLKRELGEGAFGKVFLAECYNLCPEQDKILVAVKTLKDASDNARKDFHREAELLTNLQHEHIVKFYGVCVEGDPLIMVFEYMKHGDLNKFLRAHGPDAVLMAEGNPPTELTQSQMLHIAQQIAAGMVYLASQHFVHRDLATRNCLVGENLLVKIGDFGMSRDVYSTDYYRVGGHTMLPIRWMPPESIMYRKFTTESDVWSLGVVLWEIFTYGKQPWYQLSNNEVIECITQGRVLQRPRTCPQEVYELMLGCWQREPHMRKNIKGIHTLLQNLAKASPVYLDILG

CC(C)n1cc(C(=O)c2cncc(NC(=O)Cn3ccc(C4CC4)n3)c2)c2cncc(F)c21 and CC(C)n1cc(C(=O)c2cncc(NC(=O)Cc3ccc(C#N)cc3)c2)c2c(N)ncnc21 are within 1.5-fold of each other in IC50: 7 nM for the first, 8 nM for the second.

System: human BCRP
Assay: in vitro
Conditions: dog

Work on CC(C)n1cc(C(=O)c2ccnc(NC(=O)Cc3ccc(F)cc3F)c2)c2c(N)ncnc21 yielded an efflux ratio of 10.9.

System: not listed separately
Assay: in vitro
Conditions: human, liver microsomes

First: CC(C)n1cc(C(=O)c2cncc(NC(=O)Cn3ccc(C4CC4)n3)c2)c2cncc(F)c21
Second: CC(C)n1cc(C(=O)c2cncc(NC(=O)Cc3ccc(C#N)cc3)c2)c2c(N)ncnc21
The microsomal CLint at 1 h, 1 µM of the first is 1.7-fold higher: 37 µL/min/mg for the first, 22 µL/min/mg for the second.

Compared with CC(C)n1cc(C(=O)c2ccnc(NC(=O)Cc3ccc(F)cc3F)c2)c2c(N)ncnc21, CC(C)(CO)n1cc(C(=O)c2cncc(NC(=O)Cc3ccc(Cl)cc3)c2)c2cnc(N)nc21 is lower in microsomal CLint at 1 h, 1 µM: 23 µL/min/mg for the first, less than 8 µL/min/mg for the second.

Molecular target: T1, Aldehyde oxidase
Assay: Drug metabolism in human liver S9 fractions assessed as AO-mediated oxidation on pyrrolopyrimidine-hinge binding group and the central pyridine substituent at 10 uM incubated for 60 mins in absence of CYP cofactor NADP by HPLC-UV chromatography
Type: ADME, subcellular
Conditions: s9, 1 h

In the case of CC(C)n1cc(C(=O)c2cncc(NC(=O)Cc3ccc(C#N)cc3)c2)c2c(N)ncnc21, the Drug metabolism is reported as “Metabolite_Detected”.

Molecular target: Voltage-gated inwardly rectifying potassium channel KCNH2 (Homo sapiens, UniProt Q12809)
Assay: not given
Conditions: not given

Voltage-gated inwardly rectifying potassium channel KCNH2, sequence (Q12809 whole entry): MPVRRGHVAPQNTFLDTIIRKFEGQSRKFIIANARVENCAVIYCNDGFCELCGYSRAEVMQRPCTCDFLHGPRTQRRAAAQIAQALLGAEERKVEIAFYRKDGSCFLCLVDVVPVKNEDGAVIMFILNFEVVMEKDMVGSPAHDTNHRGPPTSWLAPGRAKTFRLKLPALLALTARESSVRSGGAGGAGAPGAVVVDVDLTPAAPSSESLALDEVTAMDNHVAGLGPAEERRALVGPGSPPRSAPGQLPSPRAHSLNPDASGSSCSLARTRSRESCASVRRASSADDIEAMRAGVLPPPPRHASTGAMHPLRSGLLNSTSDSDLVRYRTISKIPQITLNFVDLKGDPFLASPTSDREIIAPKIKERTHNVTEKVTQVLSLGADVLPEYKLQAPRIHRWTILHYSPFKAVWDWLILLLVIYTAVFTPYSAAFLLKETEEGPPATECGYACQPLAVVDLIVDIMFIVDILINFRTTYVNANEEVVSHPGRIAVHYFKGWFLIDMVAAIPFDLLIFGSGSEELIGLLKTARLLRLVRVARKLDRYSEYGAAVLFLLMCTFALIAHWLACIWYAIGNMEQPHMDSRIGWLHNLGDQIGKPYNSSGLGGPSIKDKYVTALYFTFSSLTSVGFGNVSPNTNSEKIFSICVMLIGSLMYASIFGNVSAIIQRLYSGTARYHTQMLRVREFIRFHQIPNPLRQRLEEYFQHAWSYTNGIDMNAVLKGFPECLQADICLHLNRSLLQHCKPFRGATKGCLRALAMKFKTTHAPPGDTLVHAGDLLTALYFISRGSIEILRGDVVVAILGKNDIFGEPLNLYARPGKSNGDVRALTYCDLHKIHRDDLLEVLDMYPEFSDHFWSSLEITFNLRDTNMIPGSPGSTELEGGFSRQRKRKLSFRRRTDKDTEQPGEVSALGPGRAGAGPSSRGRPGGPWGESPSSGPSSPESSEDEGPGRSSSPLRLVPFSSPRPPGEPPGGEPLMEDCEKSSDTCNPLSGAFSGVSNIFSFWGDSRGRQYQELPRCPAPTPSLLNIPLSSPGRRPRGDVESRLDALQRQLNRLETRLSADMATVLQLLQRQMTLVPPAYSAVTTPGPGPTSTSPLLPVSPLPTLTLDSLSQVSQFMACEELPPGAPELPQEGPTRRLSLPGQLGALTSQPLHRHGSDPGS

CC(C)n1cc(C(=O)c2cncc(NC(=O)Cn3ccc(C4CC4)n3)c2)c2cncc(F)c21 and CC(C)n1cc(C(=O)c2cncc(NC(=O)Cc3ccc(C#N)cc3)c2)c2c(N)ncnc21 are within 1.5-fold of each other in Ki: 11300 nM for the first, 9700 nM for the second.

CC(C)n1cc(C(=O)c2ccnc(NC(=O)Cc3ccc(F)cc3F)c2)c2c(N)ncnc21 and CC(C)(CO)n1cc(C(=O)c2cncc(NC(=O)Cc3ccc(Cl)cc3)c2)c2cnc(N)nc21 cannot be ordered by Ki: 8300 nM for the first, greater than 4300 nM for the second.

Molecular target: T1, Aldehyde oxidase
Assay: Drug metabolism in human liver S9 fractions assessed as AO-mediated amide hydrolysis at 10 uM incubated for 60 mins in absence of CYP cofactor NADP by HPLC-UV chromatography
Type: ADME, subcellular
Conditions: s9, 1 h

In the case of CC(C)n1cc(C(=O)c2cncc(NC(=O)Cc3ccc(C#N)cc3)c2)c2c(N)ncnc21, the Drug metabolism is reported as “Metabolite_Detected”.

System: human BCRP
Assay: in vitro
Conditions: dog
Remark: another data set of the same source

CC(C)n1cc(C(=O)c2cncc(NC(=O)Cn3ccc(C4CC4)n3)c2)c2cncc(F)c21 and CC(C)n1cc(C(=O)c2cncc(NC(=O)Cc3ccc(C#N)cc3)c2)c2c(N)ncnc21 are within 1.5-fold of each other in Papp A→B: 15.4 ×10⁻⁶ cm/s for the first, 12.1 ×10⁻⁶ cm/s for the second.

First: CC(C)n1cc(C(=O)c2ccnc(NC(=O)Cc3ccc(F)cc3F)c2)c2c(N)ncnc21
Second: CC(C)(CO)n1cc(C(=O)c2cncc(NC(=O)Cc3ccc(Cl)cc3)c2)c2cnc(N)nc21
The Papp A→B of the first is 3.8-fold higher: 24.1 ×10⁻⁶ cm/s for the first, 6.4 ×10⁻⁶ cm/s for the second.

Molecular target: T1, Aldehyde oxidase
Assay: Drug metabolism in human liver S9 fractions assessed as AO-mediated mono-oxidised metabolite formation at 10 uM incubated for 60 mins in absence of CYP cofactor NADP by HPLC-UV chromatography
Type: ADME, subcellular
Conditions: s9, 1 h

With C[C@H](CO)n1cc(C(=O)c2ccnc(NC(=O)Cc3ccc(C#N)cc3)c2)c2cncnc21 the Drug metabolism was “Metabolite_Detected”.

Molecular target: T1, Aldehyde oxidase
Assay: Drug metabolism in human liver S9 fractions assessed as AO-mediated oxidation at fluoro-pyrrolopyridine motif at 10 uM incubated for 60 mins in absence of CYP cofactor NADP by HPLC-UV chromatography
Type: ADME, subcellular
Conditions: s9, 1 h

With CC(C)n1cc(C(=O)c2cc(NC(=O)Cc3ccc(Cl)cc3)ccn2)c2cncc(F)c21 the Drug metabolism was “Metabolite_Notdetected”.

Molecular target: T1, Aldehyde oxidase
Assay: Drug metabolism in human liver S9 fractions assessed as AO-mediated oxidation on amino-pyrrolopyrimidine hinge binding group and central pyridine substituent at 10 uM incubated for 60 mins in absence of CYP cofactor NADP by HPLC-UV chromatography
Type: ADME, subcellular
Conditions: s9, 1 h

With CC(C)n1cc(C(=O)c2cncc(NC(=O)Cc3ccc(C#N)cc3)c2)c2c(N)ncnc21 the Drug metabolism was “Metabolite_Detected”.

System: not listed separately
Assay: physchem
Conditions: buffer, pH 6.5

First: CC(C)n1cc(C(=O)c2ccnc(NC(=O)Cc3ccc(F)cc3F)c2)c2c(N)ncnc21
Second: CC(C)n1cc(C(=O)c2cncc(NC(=O)Cc3ccc(C#N)cc3)c2)c2c(N)ncnc21
The solubility of the first is 3.1-fold higher: 13.6 µM (≈ 6.13 µg/mL) for the first, 4.4 µM (≈ 1.93 µg/mL) for the second.

CC(C)(CO)n1cc(C(=O)c2cncc(NC(=O)Cc3ccc(Cl)cc3)c2)c2cnc(N)nc21 showed a solubility of 29 µM (≈ 13.9 µg/mL).

System: not given
Assay: not given
Conditions: human, hepatocytes, 4 h, 1 µM

First: CC(C)(CO)n1cc(C(=O)c2cncc(NC(=O)Cc3ccc(Cl)cc3)c2)c2cnc(N)nc21
Second: CC(C)n1cc(C(=O)c2cncc(NC(=O)Cc3ccc(C#N)cc3)c2)c2c(N)ncnc21
The “CLH(app)” value of the first is 1.6-fold higher: 11.2 µL/min for the first, 7 µL/min for the second.

Molecular target: T1, Aldehyde oxidase
Assay: Drug metabolism in human liver S9 fractions assessed as AO-mediated mono-oxidised metabolite formation at 10 uM incubated for 60 mins in absence of CYP cofactor NADP and in presence of 50 uM AO inhibitor menadione by HPLC-UV chromatography
Type: ADME, subcellular
Conditions: s9, 1 h

For C[C@H](CO)n1cc(C(=O)c2ccnc(NC(=O)Cc3ccc(C#N)cc3)c2)c2cncnc21, the Drug metabolism was “Metabolite_Notdetected”.

System: not listed separately
Assay: in vivo
Conditions: rat, brain and plasma, po, 100 mg/kg

For CC(C)n1cc(C(=O)c2cncc(NC(=O)Cc3ccc(C#N)cc3)c2)c2c(N)ncnc21, the Kp uu at 3 h was 0.013.

System: not listed separately
Assay: physchem
Conditions: octanol/water, pH 7.4

Compared with CC(C)n1cc(C(=O)c2cncc(NC(=O)Cn3ccc(C4CC4)n3)c2)c2cncc(F)c21, CC(C)n1cc(C(=O)c2cncc(NC(=O)Cc3ccc(C#N)cc3)c2)c2c(N)ncnc21 is lower in logD: 3.5 for the first, 2.5 for the second.

Going from CC(C)n1cc(C(=O)c2ccnc(NC(=O)Cc3ccc(F)cc3F)c2)c2c(N)ncnc21 to CC(C)(CO)n1cc(C(=O)c2cncc(NC(=O)Cc3ccc(Cl)cc3)c2)c2cnc(N)nc21, the logD falls from 4.3 to 3.7.

System: MDR1 (P-gp)
Assay: in vitro
Conditions: dog, MDCK-MDR1

Going from CC(C)n1cc(C(=O)c2cncc(NC(=O)Cn3ccc(C4CC4)n3)c2)c2cncc(F)c21 to CC(C)n1cc(C(=O)c2cncc(NC(=O)Cc3ccc(C#N)cc3)c2)c2c(N)ncnc21, the efflux ratio rises from 3.8 to 27.

For CC(C)n1cc(C(=O)c2ccnc(NC(=O)Cc3ccc(F)cc3F)c2)c2c(N)ncnc21, the efflux ratio was 10.9.
